One block for each molecule: values may come before it. Calls of active or inactive are those of the source. The rule behind the calls is not given here.
Tests used:
Saccharomyces cerevisiae = assay: Inhibition of NES binding to yeast CRM1-T539 mutant in absence of RanGTP at 20 uM by pull down assay
HeLa [1] = assay: Anti-cancer activity against human HeLa cells assessed as cell viability at 20 uM incubated for 2 hrs by EdU incorporation based assay; assay type: functional
[2] = biological target: Exportin-1 (Saccharomyces cerevisiae) (UniProt P30822); assay: Inhibition of GST-NES MVM binding to yeast CRM1 at 20 uM by pull down assay
A2780 [3] = assay: Induction of apoptosis in human A2780 cells assessed as early apoptotic cells at 10 uM replaced with compound containing fresh culture medium every 12 hrs measured for 72 hrs by Annexin V FITC/propidium iodide staining based flow cytometric analysis (reference value: 3.67%); assay type: functional
SW48 = assay: Anti-cancer activity against human SW48 cells assessed as cell survival at 10 uM for 72 hrs replaced with compound containing fresh culture medium every 12 hrs by Sulforhodamine B assay; assay type: functional, cell-based
A2780 [4] = assay: Anti-cancer activity against human A2780 cells assessed as fold increase Annexin V positive cells at 10 uM incubated for 2 hrs by EdU incorporation based assay; assay type: functional
A2780 [5] = assay: Induction of apoptosis in human A2780 cells assessed as late apoptotic cells at 1 uM replaced with compound containing fresh culture medium every 12 hrs measured for 72 hrs by Annexin V FITC/propidium iodide staining based flow cytometric analysis (reference value: 1.35%); assay type: functional
HeLa [6] = assay: Inhibition of cellular nuclear export in human HeLa cells transfected with hCRM1-C528T/K568A dual mutant at 10 uM incubated for 72 hrs replaced with compound containing fresh culture medium every 12 hrs by Sulforhodamine B assay; assay type: functional, cell-based
A2780 [7] = assay: Induction of apoptosis in human A2780 cells assessed as early apoptotic cells at 1 uM replaced with compound containing fresh culture medium every 12 hrs measured for 72 hrs by Annexin V FITC/propidium iodide staining based flow cytometric analysis (reference value: 3.67%); assay type: functional
A2780 [8] = assay: Induction of apoptosis in human A2780 cells assessed as necrotic cells at 5 uM replaced with compound containing fresh culture medium every 12 hrs measured for 72 hrs by Annexin V FITC/propidium iodide staining based flow cytometric analysis (reference value: 1%); assay type: functional
A2780 [9] = assay: Induction of apoptosis in human A2780 cells assessed as viable cells at 10 uM replaced with compound containing fresh culture medium every 12 hrs measured for 72 hrs by Annexin V FITC/propidium iodide staining based flow cytometric analysis (reference value: 93.97%); assay type: functional; settings: read-out: Activity
A549 [10] = assay: Anti-cancer activity against human A549 cells assessed as inhibition of DNA synthesis incubated for 2 hrs by EdU incorporation based assay; assay type: functional, cell-based; settings: dose 1-10 µM
HeLa [11] = assay: Anti-cancer activity against human HeLa cells assessed as inhibition of cell viability measured for 72 hrs replaced with compound containing fresh culture medium every 12 hrs by Sulforhodamine B assay; assay type: functional, cell-based
HeLa [12] = assay: Cytotoxicity against human HeLa cells transfected with hCRM1-C528S-mutant assessed as cell viability measured for 72 hrs replaced with compound containing fresh culture medium every 12 hrs by Sulforhodamine B assay; assay type: functional, cell-based
HepG2 [13] = assay: Anti-cancer activity against human HepG2 cells assessed as cell survival at 10 uM for 72 hrs replaced with compound containing fresh culture medium every 12 hrs by Sulforhodamine B assay; assay type: functional, cell-based
MGC-803 = assay: Anti-cancer activity against human MGC-803 cells assessed as cell survival at 10 uM for 72 hrs replaced with compound containing fresh culture medium every 12 hrs by Sulforhodamine B assay; assay type: functional, cell-based
A2780 [14] = assay: Anti-cancer activity against human A2780 cells assessed as cell survival at 10 uM for 72 hrs replaced with compound containing fresh culture medium every 12 hrs by Sulforhodamine B assay; assay type: functional, cell-based
Exportin-1 [15] = biological target: T1, Exportin-1 (Homo sapiens, UniProt O14980); assay: Binding affinity to wild type human CRM1 transfected HeLa cells assessed as inhibition of nuclear export of cargoes at 10 uM incubated for 12 hrs by confocal microscope analysis; assay type: cell-based
A549 [16] = assay: Anti-cancer activity against human A549 cells assessed as cell survival at 10 uM for 72 hrs replaced with compound containing fresh culture medium every 12 hrs by Sulforhodamine B assay; assay type: functional, cell-based
A2780 [17] = assay: Anti-cancer activity against human A2780 cells assessed as inhibition of cell viability measured for 72 hrs replaced with compound containing fresh culture medium every 12 hrs by Sulforhodamine B assay; assay type: functional, cell-based
HeLa [18] = assay: Anti-cancer activity against human HeLa cells transfected with hCRM1-C528T/K568A dual mutant assessed as measuring cell survival at 10 uM for 72 hrs replaced with compound containing fresh culture medium every 12 hrs by Sulforhodamine B assay; assay type: functional, cell-based
A549 [19] = assay: Anti-cancer activity against human A549 cells assessed as inhibition of cell viability measured for 72 hrs replaced with compound containing fresh culture medium every 12 hrs by Sulforhodamine B assay; assay type: functional, cell-based
A2780 [20] = assay: Induction of apoptosis in human A2780 cells assessed as early apoptotic cells at 5 uM replaced with compound containing fresh culture medium every 12 hrs measured for 72 hrs by Annexin V FITC/propidium iodide staining based flow cytometric analysis (reference value: 3.67%); assay type: functional
HeLa [21] = assay: Binding affinity to human CRM1 C528S mutant transfected HeLa cells assessed as inhibition of nuclear export of cargoes at 10 uM incubated for 12 hrs by confocal microscope analysis; assay type: cell-based
A2780 [22] = assay: Induction of apoptosis in human A2780 cells assessed as late apoptotic cells at 10 uM replaced with compound containing fresh culture medium every 12 hrs measured for 72 hrs by Annexin V FITC/propidium iodide staining based flow cytometric analysis (reference value: 1.35%); assay type: functional
HeLa [23] = assay: Inhibition of cellular nuclear export of transfected cargo in human HeLa cells transfected with pmCherry-C1 plasmid at 1 to 10 uM incubated for 12 hrs by confocal microscope analysis; assay type: functional, cell-based; settings: dose 1-10 µM
A2780 [24] = assay: Induction of apoptosis in human A2780 cells assessed as late apoptotic cells at 5 uM replaced with compound containing fresh culture medium every 12 hrs measured for 72 hrs by Annexin V FITC/propidium iodide staining based flow cytometric analysis (reference value: 1.35%); assay type: functional
A2780 [25] = assay: Induction of apoptosis in human A2780 cells assessed as necrotic cells at 10 uM replaced with compound containing fresh culture medium every 12 hrs measured for 72 hrs by Annexin V FITC/propidium iodide staining based flow cytometric analysis (reference value: 1%); assay type: functional
HCT-116 = assay: Anti-cancer activity against human HCT-116 cells assessed as cell survival at 10 uM for 72 hrs replaced with compound containing fresh culture medium every 12 hrs by Sulforhodamine B assay; assay type: functional, cell-based
A2780 [26] = assay: Induction of apoptosis in human A2780 cells assessed as necrotic cells at 1 uM replaced with compound containing fresh culture medium every 12 hrs measured for 72 hrs by Annexin V FITC/propidium iodide staining based flow cytometric analysis (reference value: 1%); assay type: functional
HeLa [27] = assay: Anti-cancer activity against human HeLa cells assessed as cell survival at 10 uM for 72 hrs replaced with compound containing fresh culture medium every 12 hrs by Sulforhodamine B assay; assay type: functional, cell-based
HeLa [28] = assay: Inhibition of cellular nuclear export of endogenous cargo RanBP1 in human HeLa cells transfected with pmCherry-C1 plasmid at 1 to 10 uM incubated for 12 hrs by confocal microscope analysis; assay type: functional, cell-based; settings: dose 1-10 µM
HeLa [29] = assay: Anti-cancer activity against human HeLa cells assessed as inhibition of DNA synthesis at 1 to 10 uM incubated for 2 hrs by EdU incorporation based assay; assay type: functional, cell-based; settings: dose 1-10 µM
A549 [30] = assay: Induction of apoptosis in human A549 cells assessed as cell death at 1 to 10 uM treated for 12 hrs by Annexin V FITC/propidium iodide staining based flow cytometric analysis; assay type: functional; settings: dose 1-10 µM
HepG2 [31] = assay: Anti-cancer activity against human HepG2 cells assessed as inhibition of cell viability measured for 72 hrs replaced with compound containing fresh culture medium every 12 hrs by Sulforhodamine B assay; assay type: functional, cell-based
Huh-7 = assay: Anti-cancer activity against human HuH-7 cells assessed as cell survival at 10 uM for 72 hrs replaced with compound containing fresh culture medium every 12 hrs by Sulforhodamine B assay; assay type: functional, cell-based
PANC-1 = assay: Anti-cancer activity against human PANC-1 cells assessed as cell survival at 10 uM for 72 hrs replaced with compound containing fresh culture medium every 12 hrs by Sulforhodamine B assay; assay type: functional, cell-based
HeLa [32] = assay: Inhibition of cellular nuclear export in human HeLa cells transfected with hCRM1- C528T/F572Y dual mutant at 10 uM incubated for 72 hrs replaced with compound containing fresh culture medium every 12 hrs by Sulforhodamine B assay; assay type: functional, cell-based
HGC-27 = assay: Anti-cancer activity against human HGC-27 cells assessed as cell survival at 10 uM for 72 hrs replaced with compound containing fresh culture medium every 12 hrs by Sulforhodamine B assay; assay type: functional, cell-based
Exportin-1 [33] = biological target: T1, Exportin-1; assay: Inhibition of MBP-NES PKI binding to human CRM1 in presence RanGTP at 20 uM by pull down assay
A2780 [34] = assay: Induction of apoptosis in human A2780 cells assessed as viable cells at 5 uM replaced with compound containing fresh culture medium every 12 hrs measured for 72 hrs by Annexin V FITC/propidium iodide staining based flow cytometric analysis (reference value: 93.97%); assay type: functional; settings: read-out: Activity
A2780 [35] = assay: Anti-cancer activity against human A2780 cells assessed as fold reduction in DNA synthesis rate at 10 uM incubated for 2 hrs by EdU incorporation based assay; assay type: functional
HeLa [36] = assay: Anti-cancer activity against human HeLa cells transfected with hCRM1-C528T/F572Y dual mutant assessed as cell survival at 10 uM for 72 hrs replaced with compound containing fresh culture medium every 12 hrs by Sulforhodamine B assay; assay type: functional, cell-based
Exportin-1 [37] = biological target: T1, Exportin-1; assay: Binding affinity to Cy3 dye-labelled human CRM1 assessed as dissociation constant in absence of RanGTP at 10 uM incubated for 1 hr by micro-scale thermophoresis analysis
HeLa [38] = assay: (§1) Inhibition of cellular nuclear export in human HeLa cells transfected with pmCherry-C1 Cargo plasmid assessed as cytoplasmic cargo level incubated for 12 hrs by confocal microscopic analysis; assay type: functional, cell-based; settings: dose 1-10 µM
[39] = as §1; assay type: functional, cell-based
A2780 [40] = assay: Induction of apoptosis in human A2780 cells assessed as viable cells at 1 uM replaced with compound containing fresh culture medium every 12 hrs measured for 72 hrs by Annexin V FITC/propidium iodide staining based flow cytometric analysis (reference value: 93.97%); assay type: functional; settings: read-out: Activity
HeLa [41] = assay: Induction of apoptosis in human HeLa cells assessed as cell death at 1 to 10 uM treated for 12 hrs by Annexin V FITC/propidium iodide staining based flow cytometric analysis; assay type: functional; settings: dose 1-10 µM

T1 sequence (O14980 whole entry): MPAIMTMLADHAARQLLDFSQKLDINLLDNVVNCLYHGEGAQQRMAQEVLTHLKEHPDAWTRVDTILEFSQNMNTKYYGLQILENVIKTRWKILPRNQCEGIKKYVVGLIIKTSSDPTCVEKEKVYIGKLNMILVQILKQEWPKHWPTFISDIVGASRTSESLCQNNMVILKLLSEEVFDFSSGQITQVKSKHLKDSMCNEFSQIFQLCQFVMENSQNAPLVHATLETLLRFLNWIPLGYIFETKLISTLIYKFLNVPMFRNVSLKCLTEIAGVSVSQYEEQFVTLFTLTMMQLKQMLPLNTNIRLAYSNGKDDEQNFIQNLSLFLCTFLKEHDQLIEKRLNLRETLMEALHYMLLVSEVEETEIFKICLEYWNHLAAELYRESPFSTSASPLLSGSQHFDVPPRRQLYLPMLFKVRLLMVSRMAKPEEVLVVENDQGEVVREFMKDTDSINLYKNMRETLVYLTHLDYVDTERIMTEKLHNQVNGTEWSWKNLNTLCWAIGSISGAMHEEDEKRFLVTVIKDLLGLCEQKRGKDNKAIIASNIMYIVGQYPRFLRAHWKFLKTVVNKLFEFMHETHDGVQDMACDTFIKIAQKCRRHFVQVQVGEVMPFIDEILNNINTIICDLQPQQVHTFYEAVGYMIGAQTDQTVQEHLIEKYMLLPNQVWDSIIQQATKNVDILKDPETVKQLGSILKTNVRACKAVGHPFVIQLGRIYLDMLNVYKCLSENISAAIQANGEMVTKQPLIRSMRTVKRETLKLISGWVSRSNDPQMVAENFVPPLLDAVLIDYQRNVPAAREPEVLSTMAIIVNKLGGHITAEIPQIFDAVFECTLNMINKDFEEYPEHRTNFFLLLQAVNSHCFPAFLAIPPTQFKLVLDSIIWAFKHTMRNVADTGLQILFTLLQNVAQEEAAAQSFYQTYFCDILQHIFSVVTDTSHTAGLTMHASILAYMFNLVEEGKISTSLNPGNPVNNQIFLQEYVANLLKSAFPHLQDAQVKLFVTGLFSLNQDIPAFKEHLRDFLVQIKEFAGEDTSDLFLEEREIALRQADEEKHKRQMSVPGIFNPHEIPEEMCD

- inhibition (Saccharomyces cerevisiae): Active
- inhibition [2]: Active
Structure (SMILES): FC(F)(F)c1cc(S/C=C/CBr)cc(C(F)(F)F)c1
- Activity (HeLa [1]): inactive

- inhibition [2]: inactive
Structure (SMILES): [O-][S+](Cc1cc(Br)no1)c1cc(C(F)(F)F)cc(C(F)(F)F)c1 (centres undefined)
- Activity (HeLa [1]): inactive

Structure (SMILES): CC(C)CCNC/C=C/Sc1cc(C(F)(F)F)cc(C(F)(F)F)c1
- Activity (HeLa [1]): inactive

- IC50 (HeLa [11]): 3.8 µM
- inhibition (Exportin-1 [15]): Active
- IC50 (A2780 [17]): 5 µM
- IC50 (A549 [19]): 6.8 µM
- inhibition (Saccharomyces cerevisiae): Active
- IC50 (HepG2 [31]): 2.9 µM
- inhibition (Exportin-1 [33]): Active
- inhibition [2]: Active
- Kd (Exportin-1 [37]): 0.024 µM
- EC50 [39]: 3.2 µM
Structure (SMILES): CC(C)CCNC/C=C/[S+]([O-])c1cc(C(F)(F)F)cc(C(F)(F)F)c1 (centres undefined)
- Activity (A2780 [3]): 24.26%
- Activity (SW48): Active
- fold change (FC) (A2780 [4]): 2
- Activity (A2780 [5]): 1.33%
- inhibition (HeLa [6]): inactive
- Activity (A2780 [7]): 4.71%
- Activity (A2780 [8]): 1.88%
- viability at 10 µM (A2780 [9]): 64.4%
- Activity (A549 [10]): Dose-Dependent Effect
- IC50 (HeLa [12]): 5.9 µM
- Activity (HepG2 [13]): Active
- Activity (MGC-803): Active
- Activity (A2780 [14]): Active
- Activity (A549 [16]): Active
- IC50 (HeLa [18]): 2 µM
- Activity (A2780 [20]): 15.55%
- inhibition (HeLa [21]): Active
- Activity (A2780 [22]): 7.14%
- inhibition (HeLa [23]): Active
- Activity (A2780 [24]): 3.29%
- Activity (A2780 [25]): 4.19%
- Activity (HCT-116): Active
- Activity (A2780 [26]): 1.1%
- Activity (HeLa [27]): Active
- inhibition (HeLa [28]): Active
- Activity (HeLa [29]): Dose-Dependent Effect
- Activity (A549 [30]): Dose-Dependent Effect
- Activity (HeLa [1]): Active
- Activity (Huh-7): Active
- Activity (PANC-1): Active
- inhibition (HeLa [32]): inactive
- Activity (HGC-27): Active
- viability at 5 µM (A2780 [34]): 79.2%
- fold change (FC) (A2780 [35]): 5
- IC50 (HeLa [36]): 2.6 µM
- inhibition (HeLa [38]): Dose-Dependent Effect
- viability at 1 µM (A2780 [40]): 92.8%
- Activity (HeLa [41]): Dose-Dependent Effect

Structure (SMILES): CC1=C(COCCC(C)(C)C)C(=O)N(Nc2ccc(C(F)(F)F)c(Cl)n2)C1=O
- Activity (SW48): Active
- Activity (HepG2 [13]): Active
- Activity (MGC-803): Active
- Activity (A2780 [14]): Active
- Activity (A549 [16]): Active
- Activity (HCT-116): Active
- Activity (HeLa [27]): Active
- Activity (Huh-7): Active
- Activity (PANC-1): Active
- Activity (HGC-27): Active
